What follows are compounds tested on γ-secretase (assay: Cellular γ-secretase assay (inhibition of Aβ42 secretion, AlphaLisa)). Settings: Human neuroglioma H4 cells overexpressing human APP695 Swedish double mutation; 24 hr compound incubation; secreted Aβ42 in supernatant.
Type: cell-based
Description: Cellular γ-Secretase Assay
Human neuroglioma H4 cells overexpressing human APP695 with the Swedish double mutation (K595N/M596L) were plated at 30,000 cells/well/100 μl in 96-well plates in IMDM media containing 10% FCS, 0.2 mg/l Hygromycin B and incubated at 37° C., 5% CO2.
3-4 hr post plating, compounds are a diluted in media and 50 μl is added as 1.5-fold concentrate to achieve the final concentration. Compound incubation is performed for 24 hr. Final doses typically range from 4 μM down to 0.0013 μM in half-log steps resulting in a eight point dose response curve.
Appropriate controls using vehicle only and reference compound were applied to this assay. The final concentration of Me2SO was 0.4%.
After incubation at 37° C., 5% CO2, the supernatant was subjected to quantification of secreted Aβ42 by the means of an AlphaLisa assay kit (Human Amyloid beta 1-42 Kit: Cat # AL203C, Perkin Elmer). 20 μl of the cell culture supernatant was transferred to an assay plate. Then 10 μl of a mixture of the AlphaLisa coupled capture antibody and the biotinylated detection antibody was added and incubated for 3 hours at room temperature while softly shaking the assay plate. After a further addition of 20 μl of the Donor beads the assay plate was incubated for 30 min at room temperature and constant shaking without exposure to direct light.
The assay plate was then read on a Paradigm AlphaLisa Reader using the build-in program with excitation at 680 nm and emission at […].
The measured signals were then used to calculate IC50 values for inhibition of Aβ42 secretion by nonlinear regression fit analysis using XLfit 5.3 software (IDBS).

Row | SMILES | EC50 [nM]
1 | Fc1ccc(N2CCCn3nc(N[C@@H]4[C@@H]5CC[C@H]4CN(c4ccnc(C(F)(F)F)c4)C5)nc32)cc1F [Example 1, 4-(3,4-difluorophenyl)-N-[(1R,5S,8S)-3-[2-(trifluoromethyl)-4-pyridyl]-3-azabicyclo[3.2.1]octan-8-yl]-6,7-dihydro-5H-[1,2,4]triazolo[1,5-a]pyrimidin-2-amine] | 15.8
2 | Fc1ccc(N2CCCn3nc(N[C@@H]4[C@@H]5CC[C@H]4CN(c4ccnc(Cl)c4)C5)nc32)cc1F [Example 2, N-[(1R,5S,8S)-3-(2-chloro-4-pyridyl)-3-azabicyclo[3.2.1]octan-8-yl]-4-(3,4-difluorophenyl)-6,7-dihydro-5H-[1,2,4]triazolo[1,5-a]pyrimidin-2-amine] | 5.9
3 | Fc1ccc(N2CCn3nc(N[C@@H]4[C@@H]5CC[C@H]4CN(c4ccnc(C(F)(F)F)c4)C5)nc32)cc1F [Example 4, 4-(3,4-difluorophenyl)-N-[(1R,5S,8S)-3-[2-(trifluoromethyl)-4-pyridyl]-3-azabicyclo[3.2.1]octan-8-yl]-5,6-dihydroimidazo[1,2-b][1,2,4]triazol-2-amine] | 89.2
4 | FC(F)(F)c1ccc(N2CCCn3nc(N[C@@H]4[C@@H]5CC[C@H]4CN(c4ccnc(C(F)(F)F)c4)C5)nc32)cc1 [Example 6, 4-[4-(trifluoromethyl)phenyl]-N-[(1R,5S,8S)-3-[2-(trifluoromethyl)-4-pyridyl]-3-azabicyclo[3.2.1]octan-8-yl]-6,7-dihydro-5H-[1,2,4]triazolo[1,5-a]pyrimidin-2-amine] | 21.4
5 | FC(F)(F)c1ccc(N2CCCCn3nc(N[C@@H]4[C@@H]5CC[C@H]4CN(c4ccnc(C(F)(F)F)c4)C5)nc32)cc1 [Example 7, 4-[4-(trifluoromethyl)phenyl]-N-[(1R,5S,8S)-3-[2-(trifluoromethyl)-4-pyridyl]-3-azabicyclo[3.2.1]octan-8-yl]-5,6,7,8-tetrahydro-[1,2,4]triazolo[1,5-a][1,3]diazepin-2-amine] | 30.2
6 | Cc1cc(N2C[C@H]3CC[C@@H](C2)[C@@H]3Nc2nc3n(n2)CCCN3c2ccc(C(F)(F)F)cc2)ncn1 [Example 8, N-[(1R,5S,8S)-3-(6-methylpyrimidin-4-yl)-3-azabicyclo[3.2.1]octan-8-yl]-4-[4-(trifluoromethyl)phenyl]-6,7-dihydro-5H-[1,2,4]triazolo[1,5-a]pyrimidin-2-amine] | 11.7
7 | Cc1cc(N2C[C@H]3CC[C@@H](C2)[C@@H]3Nc2nc3n(n2)CCCCN3c2ccc(C(F)(F)F)cc2)ncn1 [Example 9, N-[(1R,5S,8S)-3-(6-methylpyrimidin-4-yl)-3-azabicyclo[3.2.1]octan-8-yl]-4-[4-(trifluoromethyl)phenyl]-5,6,7,8-tetrahydro-[1,2,4]triazolo[1,5-a][1,3]diazepin-2-amine] | 19.2
8 | Cc1ccc(N2CCCn3nc(N[C@@H]4[C@@H]5CC[C@H]4CN(c4ccnc(C(F)(F)F)c4)C5)nc32)cc1F [Example 10, 4-(3-fluoro-4-methyl-phenyl)-N-[(1R,5S,8S)-3-[2-(trifluoromethyl)-4-pyridyl]-3-azabicyclo[3.2.1]octan-8-yl]-6,7-dihydro-5H-[1,2,4]triazolo[1,5-a]pyrimidin-2-amine] | 31.2
9 | Cc1noc(N2C[C@H]3CC[C@@H](C2)[C@@H]3Nc2nc3n(n2)CCCN3c2ccc(F)c(F)c2)n1 [Example 15, 4-(3,4-difluorophenyl)-N-[(1R,5S,8S)-3-(3-methyl-1,2,4-oxadiazol-5-yl)-3-azabicyclo[3.2.1]octan-8-yl]-6,7-dihydro-5H-[1,2,4]triazolo[1,5-a]pyrimidin-2-amine] | 30.6
10 | COc1cc(N2C[C@H]3CC[C@@H](C2)[C@@H]3Nc2nc3n(n2)CCCN3c2ccc(F)c(F)c2)ccn1 [Example 21, 4-(3,4-difluorophenyl)-N-[(1R,5S,8S)-3-(2-methoxy-4-pyridyl)-3-azabicyclo[3.2.1]octan-8-yl]-6,7-dihydro-5H-[1,2,4]triazolo[1,5-a]pyrimidin-2-amine] | 14.7
11 | Fc1ccc(N2CCCCn3nc(N[C@@H]4[C@@H]5CC[C@H]4CN(c4ccnc(C(F)(F)F)c4)C5)nc32)cc1F [Example 22, 4-(3,4-difluorophenyl)-N-[(1R,5S,8S)-3-[2-(trifluoromethyl)-4-pyridyl]-3-azabicyclo[3.2.1]octan-8-yl]-5,6,7,8-tetrahydro-[1,2,4]triazolo[1,5-a][1,3]diazepin-2-amine] | 34.8

Other lines, results leading:

Row | EC50 [nM] | SMILES
12 | 26.4 | Cc1cc(N2C[C@H]3CC[C@@H](C2)[C@@H]3Nc2nc3n(n2)CCCN3c2ccc(F)c(F)c2)ncn1 [Example 3, 4-(3,4-difluorophenyl)-N-[(1R,5S,8S)-3-(6-methylpyrimidin-4-yl)-3-azabicyclo[3.2.1]octan-8-yl]-6,7-dihydro-5H-[1,2,4]triazolo[1,5-a]pyrimidin-2-amine]
13 | 35.6 | Cc1cc(N2C[C@H]3CC[C@@H](C2)[C@@H]3Nc2nc3n(n2)CCN3c2ccc(F)c(F)c2)ncn1 [Example 5, 4-(3,4-difluorophenyl)-N-[(1R,5S,8S)-3-(6-methylpyrimidin-4-yl)-3-azabicyclo[3.2.1]octan-8-yl]-5,6-dihydroimidazo[1,2-b][1,2,4]triazol-2-amine]
14 | 27.8 | Cc1cc(N2C[C@H]3CC[C@@H](C2)[C@@H]3Nc2nc3n(n2)CCCN3c2ccc(C)c(F)c2)ncn1 [Example 11, 4-(3-fluoro-4-methyl-phenyl)-N-[(1R,5S,8S)-3-(6-methylpyrimidin-4-yl)-3-azabicyclo[3.2.1]octan-8-yl]-6,7-dihydro-5H-[1,2,4]triazolo[1,5-a]pyrimidin-2-amine]
15 | 26.8 | Cc1cc(N2C[C@H]3CC[C@@H](C2)[C@@H]3Nc2nc3n(n2)CCN3c2ccc(C(F)(F)F)cc2)ncn1 [Example 12, N-[(1R,5S,8S)-3-(6-methylpyrimidin-4-yl)-3-azabicyclo[3.2.1]octan-8-yl]-4-[4-(trifluoromethyl)phenyl]-5,6-dihydroimidazo[1,2-b][1,2,4]triazol-2-amine]
16 | 11.4 | Cc1ccc(N2CCCn3nc(N[C@@H]4[C@@H]5CC[C@H]4CN(c4cc(Cl)ncn4)C5)nc32)cc1F [Example 13, N-[(1R,5S,8S)-3-(6-chloropyrimidin-4-yl)-3-azabicyclo[3.2.1]octan-8-yl]-4-(3-fluoro-4-methyl-phenyl)-6,7-dihydro-5H-[1,2,4]triazolo[1,5-a]pyrimidin-2-amine]
17 | 15.5 | COc1cc(N2C[C@H]3CC[C@@H](C2)[C@@H]3Nc2nc3n(n2)CCCN3c2ccc(F)c(F)c2)ncn1 [Example 14, 4-(3,4-difluorophenyl)-N-[(1R,5S,8S)-3-(6-methoxypyrimidin-4-yl)-3-azabicyclo[3.2.1]octan-8-yl]-6,7-dihydro-5H-[1,2,4]triazolo[1,5-a]pyrimidin-2-amine]
18 | 17.2 | Fc1ccc(N2CCCn3nc(N[C@@H]4[C@@H]5CC[C@H]4CN(c4cnnc(Cl)c4)C5)nc32)cc1F [Example 16, N-[(1R,5S,8S)-3-(6-chloropyridazin-4-yl)-3-azabicyclo[3.2.1]octan-8-yl]-4-(3,4-difluorophenyl)-6,7-dihydro-5H-[1,2,4]triazolo[1,5-a]pyrimidin-2-amine]
19 | 58 | Fc1ccc(N2CCCn3nc(N[C@@H]4[C@@H]5CC[C@H]4CN(c4cc(Cl)ncn4)C5)nc32)cc1F [Example 17, N-[(1R,5S,8S)-3-(6-chloropyrimidin-4-yl)-3-azabicyclo[3.2.1]octan-8-yl]-4-(3,4-difluorophenyl)-6,7-dihydro-5H-[1,2,4]triazolo[1,5-a]pyrimidin-2-amine]
20 | 26.4 | COc1cc(N2C[C@H]3CC[C@@H](C2)[C@@H]3Nc2nc3n(n2)CCCN3c2ccc(F)c(F)c2)cnn1 [Example 18, 4-(3,4-difluorophenyl)-N-[(1R,5S,8S)-3-(6-methoxypyridazin-4-yl)-3-azabicyclo[3.2.1]octan-8-yl]-6,7-dihydro-5H-[1,2,4]triazolo[1,5-a]pyrimidin-2-amine]
21 | 13.9 | Cc1ncnc(N2C[C@H]3CC[C@@H](C2)[C@@H]3Nc2nc3n(n2)CCCN3c2ccc(F)c(F)c2)c1F [Example 19, 4-(3,4-difluorophenyl)-N-[(1R,5S,8S)-3-(5-fluoro-6-methyl-pyrimidin-4-yl)-3-azabicyclo[3.2.1]octan-8-yl]-6,7-dihydro-5H-[1,2,4]triazolo[1,5-a]pyrimidin-2-amine]
22 | 23.1 | Cc1cc(N2C[C@H]3CC[C@@H](C2)[C@@H]3Nc2nc3n(n2)CCCN3c2ccc(F)c(F)c2)cnn1 [Example 20, 4-(3,4-difluorophenyl)-N-[(1R,5S,8S)-3-(6-methylpyridazin-4-yl)-3-azabicyclo[3.2.1]octan-8-yl]-6,7-dihydro-5H-[1,2,4]triazolo[1,5-a]pyrimidin-2-amine]

— patent publication US10899766B2, “Bridged piperidine derivatives” (Hoffmann-La Roche Inc., priority 2016, dated 2021)
